Test results as given in US6737383B1, “Herbicidal oxadiazolidines” (priority 1999, dated 2004).

Legend:
[1] = test system: blackgrass; test: Test B pre/postemergence blackgrass; assay type: in vivo, Alopecurus myosuroides
Outline: (§1)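 Herbicidal effect was estimated by eye on a ten-point control scale after plants spent twelve to sixteen days in a greenhouse following soil or foliar treatment. Foliar sprays targeted plants at one to four leaves; all doses were formulated in a non-phytotoxic solvent with surfactant.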

[2] = test system: winter wheat; test: Test E winter wheat; assay type: in vivo, Triticum aestivum; conditions: Postemergence
Outline: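 Greenhouse test: for postemergence, foliar application at 1- to 4-leaf stage; compound in non-phytotoxic solvent with surfactant. Rating is visual, relative to untreated controls, about 21 to 28 days after treatment.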

[3] = test system: purple nutsedge; test: Test B pre/postemergence purple nutsedge; assay type: in vivo, Cyperus rotundus
Outline: as §1

[4] = test system: Italian ryegrass; test: Test E Italian ryegrass; assay type: in vivo, Lolium multiflorum; conditions: Preemergence
[5] = test system: wild oat; test: Test E wild oat; assay type: in vivo, Avena fatua; conditions: Preemergence
[6] = test system: blackgrass; test: Test E blackgrass; assay type: in vivo, Alopecurus myosuroides; conditions: Preemergence
[7] = test system: winter wheat; test: Test E winter wheat; assay type: in vivo, Triticum aestivum; conditions: Preemergence
[8] = test system: winter barley; test: Test E winter barley; assay type: in vivo, Hordeum vulgare; conditions: Preemergence
[9] = test system: giant foxtail; test: Test B pre/postemergence giant foxtail; assay type: in vivo, Setaria faberii
Outline: as §1

[10] = test system: green foxtail; test: Test E green foxtail; assay type: in vivo, Setaria viridis; conditions: Preemergence
[11] = test system: wheat; test: Test B pre/postemergence wheat; assay type: in vivo, Triticum aestivum
Outline: as §1

[12] = Preemergence, Rate 250 g/ha, scale of 0 to 10 where 0 is no effect and 10 is complete control
[13] = Preemergence, Rate 500 g/ha, scale of 0 to 10 where 0 is no effect and 10 is complete control
[14] = Rate 125 g/ha, Preemergence, scale of 0 to 10 where 0 is no effect and 10 is complete control
[15] = Rate 500 g/ha, Postemergence, scale 0 to 10, 0 no effect, 10 complete control
[16] = Rate 250 g/ha, 0 to 100 scale where 0 is no effect and 100 is complete control
[17] = Rate 500 g/ha, 0 to 100 scale, 0 is no effect, 100 is complete control
[18] = Rate 500 g/ha, 0 to 100 scale where 0 is no effect and 100 is complete control
[19] = Rate 1000 g/ha, 0 to 100 scale, 0 no effect, 100 complete control
[20] = Preemergence, Rate 62 g/ha, scale of 0 to 10 where 0 is no effect and 10 is complete control
[21] = Rate 62 g/ha, Postemergence, scale 0 to 10 (0 no effect, 10 complete control)
[22] = Rate 125 g/ha, Postemergence, scale of 0 to 10 where 0 is no effect and 10 is complete control
[23] = Rate 250 g/ha, Postemergence, scale of 0 to 10 where 0 is no effect and 10 is complete control
[24] = Rate 125 g/ha, 0 to 100 scale, 0 is no effect, 100 is complete control
[25] = Rate 125 g/ha, 0 to 100 scale (0 no effect, 100 complete control)
[26] = Rate 500 g/ha, 0 to 100 scale (0 no effect, 100 complete control)

## CC(C)N(C(=O)n1oc(=O)n(CC(C)(C)C)c1=O)c1ccc(F)cc1 [Compound 246]
[1]; [12]
  Blackgrass plant response rating: 6
[1]; [13]
  Plant response rating, Blackgrass: 10
[1]; Rate 62 g/ha, Postemergence, scale of 0 to 10 where 0 is no effect and 10 is complete control
  Blackgrass plant response rating: 0
[1]; Rate 125 g/ha, Postemergence, scale 0 to 10
  Blackgrass plant response rating: 2
[1]; [14]
  Blackgrass plant response rating: 5
[1]; Rate 250 g/ha, Postemergence
  Plant response rating (0 to 10; 0 is no effect, 10 is complete control), Blackgrass: 6
[1]; [15]
  Blackgrass plant response rating: 8
[2]; Rate 1000 g/ha, 0 to 100 scale where 0 is no effect and 100 is complete control
  Plant response rating, Wheat (winter): 0
[2]; [16]
  Wheat (winter) plant response rating: 0
[2]; [17]
  Plant response rating, Wheat (winter): 0
[3]; [12]
  Nutsedge plant response rating: 0
[3]; [13]
  Plant response rating, Nutsedge: 0
[3]; Rate 250 g/ha, Postemergence
  Plant response rating (0 to 10; 0 is no effect, 10 is complete control), Nutsedge: 0
[3]; [15]
  Nutsedge plant response rating: 3
[4]; Rate 250 g/ha
  I. Ryegrass plant response rating (0 to 100 scale): 80
[4]; [18]
  Plant response rating, I. Ryegrass: 90
[4]; [19]
  Plant response rating, I. Ryegrass: 100
[5]; Rate 250 g/ha
  Wild oat plant response rating (0 to 100 scale): 50
[5]; [18]
  Plant response rating, Wild oat: 65
[5]; [19]
  Plant response rating, Wild oat: 85
[6]; Rate 250 g/ha
  Blackgrass plant response rating (0 to 100 scale): 60
[6]; [18]
  Plant response rating, Blackgrass: 100
[6]; [19]
  Plant response rating, Blackgrass: 100
[7]; Rate 250 g/ha
  Wheat (winter) plant response rating (0 to 100 scale): 50
[7]; [19]
  Plant response rating, Wheat (winter): 50
[8]; Rate 250 g/ha
  Barley (winter) plant response rating (0 to 100 scale): 40
[8]; [18]
  Plant response rating, Barley (winter): 50
[8]; [19]
  Plant response rating, Barley (winter): 60
[9]; [20]
  Giant foxtail plant response rating: 8
[9]; [12]
  Giant foxtail plant response rating: 10
[9]; [13]
  Plant response rating, Giant foxtail: 10
[9]; [14]
  Giant foxtail plant response rating: 9
[9]; Rate 250 g/ha, Postemergence
  Plant response rating (0 to 10; 0 is no effect, 10 is complete control), Giant foxtail: 5
[9]; [15]
  Giant foxtail plant response rating: 8
[10]; Rate 250 g/ha
  Green foxtail plant response rating (0 to 100 scale): 100
[10]; [18]
  Plant response rating, Green foxtail: 100
[10]; [19]
  Plant response rating, Green foxtail: 100
[11]; [20]
  Wheat plant response rating: 0
[11]; [12]
  Wheat plant response rating: 0
[11]; [13]
  Plant response rating, Wheat: 5
[11]; [14]
  Wheat plant response rating: 0
[11]; [15]
  Wheat plant response rating: 4

## CSCCn1c(=O)on(C(=O)N(c2ccc(F)cc2)C(C)C)c1=O [Compound 314]
[1]; [20]
  Blackgrass plant response rating: 5
[1]; Preemergence, Rate 125 g/ha
  Blackgrass plant response rating (0 to 10 scale): 7
[1]; [12]
  Blackgrass plant response rating: 10
[1]; [13]
  Blackgrass plant response rating: 10
[1]; [21]
  Blackgrass plant response rating: 2
[1]; [22]
  Blackgrass plant response rating: 4
[1]; [23]
  Plant response rating, Blackgrass: 5
[1]; [15]
  Blackgrass plant response rating: 5
[2]; [24]
  Plant response rating, Wheat (winter): 65
[2]; Rate 250 g/ha, 0 to 100 scale, 0 is no effect, 100 is complete control
  Plant response rating, Wheat (winter): 70
[3]; [20]
  Nutsedge plant response rating: 0
[3]; [13]
  Nutsedge plant response rating: 0
[3]; [21]
  Nutsedge plant response rating: 0
[3]; [22]
  Nutsedge plant response rating: 0
[3]; [23]
  Plant response rating, Nutsedge: 0
[4]; [25]
  Plant response rating, I. Ryegrass: 50
[4]; Rate 250 g/ha, 0 to 100 scale
  Plant response rating, I. Ryegrass: 55
[5]; [25]
  Plant response rating, Wild oat: 70
[5]; Rate 250 g/ha, 0 to 100 scale
  Plant response rating, Wild oat: 70
[6]; [25]
  Plant response rating, Blackgrass: 40
[6]; Rate 250 g/ha, 0 to 100 scale
  Plant response rating, Blackgrass: 50
[7]; [25]
  Plant response rating, Wheat (winter): 65
[7]; Rate 250 g/ha, 0 to 100 scale
  Plant response rating, Wheat (winter): 70
[8]; [25]
  Plant response rating, Barley (winter): 50
[8]; Rate 250 g/ha, 0 to 100 scale, 0 no effect, 100 complete control
  Plant response rating, Barley (winter): 60
[9]; [20]
  Giant foxtail plant response rating: 3
[9]; Preemergence, Rate 125 g/ha
  Giant foxtail plant response rating (0 to 10 scale): 6
[9]; [12]
  Giant foxtail plant response rating: 7
[9]; [13]
  Giant foxtail plant response rating: 10
[9]; [21]
  Giant foxtail plant response rating: 0
[9]; [22]
  Giant foxtail plant response rating: 0
[9]; [23]
  Plant response rating, Giant foxtail: 3
[10]; [25]
  Plant response rating, Green foxtail: 60
[10]; Rate 250 g/ha, 0 to 100 scale
  Plant response rating, Green foxtail: 85
[11]; [20]
  Wheat plant response rating: 0
[11]; Preemergence, Rate 125 g/ha
  Wheat plant response rating (0 to 10 scale): 0
[11]; [12]
  Wheat plant response rating: 0
[11]; [13]
  Wheat plant response rating: 3
[11]; [21]
  Wheat plant response rating: 0
[11]; [22]
  Wheat plant response rating: 0
[11]; [23]
  Plant response rating, Wheat: 3

## COCn1c(=O)on(C(=O)N(c2ccc(F)cc2)C(C)C)c1=O [Compound 293]
[1]; [20]
  Blackgrass plant response rating: 7
[1]; [12]
  Blackgrass plant response rating: 9
[1]; [13]
  Plant response rating, Blackgrass: 9
[1]; [21]
  Blackgrass plant response rating: 5
[1]; [22]
  Blackgrass plant response rating: 9
[1]; [14]
  Blackgrass plant response rating: 7
[1]; [23]
  Plant response rating, Blackgrass: 9
[1]; [15]
  Blackgrass plant response rating: 9
[2]; [24]
  Plant response rating, Wheat (winter): 50
[2]; [16]
  Wheat (winter) plant response rating: 30
[2]; [17]
  Plant response rating, Wheat (winter): 50
[3]; [20]
  Nutsedge plant response rating: 0
[3]; [12]
  Nutsedge plant response rating: 7
[3]; [21]
  Nutsedge plant response rating: 0
[3]; [22]
  Nutsedge plant response rating: 3
[3]; [14]
  Nutsedge plant response rating: 0
[3]; [23]
  Plant response rating, Nutsedge: 8
[4]; [25]
  Plant response rating, I. Ryegrass: 30
[4]; Rate 250 g/ha
  I. Ryegrass plant response rating (0 to 100 scale): 50
[4]; [26]
  Plant response rating, I. Ryegrass: 50
[5]; [25]
  Plant response rating, Wild oat: 0
[5]; Rate 250 g/ha
  Wild oat plant response rating (0 to 100 scale): 10
[5]; [26]
  Plant response rating, Wild oat: 50
[6]; [25]
  Plant response rating, Blackgrass: 40
[6]; [26]
  Plant response rating, Blackgrass: 50
[7]; [25]
  Plant response rating, Wheat (winter): 40
[7]; Rate 250 g/ha
  Wheat (winter) plant response rating (0 to 100 scale): 50
[7]; [26]
  Plant response rating, Wheat (winter): 55
[8]; [25]
  Plant response rating, Barley (winter): 40
[8]; Rate 250 g/ha
  Barley (winter) plant response rating (0 to 100 scale): 40
[8]; [26]
  Plant response rating, Barley (winter): 50
[9]; [20]
  Giant foxtail plant response rating: 9
[9]; [12]
  Giant foxtail plant response rating: 9
[9]; [13]
  Plant response rating, Giant foxtail: 10
[9]; [21]
  Giant foxtail plant response rating: 5
[9]; [22]
  Giant foxtail plant response rating: 8
[9]; [14]
  Giant foxtail plant response rating: 9
[9]; [23]
  Plant response rating, Giant foxtail: 8
[10]; [25]
  Plant response rating, Green foxtail: 55
[10]; Rate 250 g/ha
  Green foxtail plant response rating (0 to 100 scale): 70
[10]; [26]
  Plant response rating, Green foxtail: 60
[11]; [20]
  Wheat plant response rating: 2
[11]; [12]
  Wheat plant response rating: 8
[11]; [13]
  Plant response rating, Wheat: 9
[11]; [21]
  Wheat plant response rating: 2
[11]; [22]
  Wheat plant response rating: 6
[11]; [14]
  Wheat plant response rating: 7
[11]; [23]
  Plant response rating, Wheat: 7
